Data: US8648116B2, “Derivatives of N-(arylamino) sulfonamides including polymorphs as inhibitors of MEK as well as compositions, methods of use and methods for preparing the same” (Ardea Biosciences, Inc., priority 2005, dated 2014)
Read-outs that look alike come from different tables or passages of the source.

Columns and labels:
[1] = test system: COLO 205 human colon carcinoma xenografts; experiment: Activity against subcutaneous COLO 205 xenografts (Example 118)
Method: Dosing solutions of Compound A were prepared fresh daily by dissolving the required amount of compound in 100% Cremophor EL, and then diluting ten-fold with normal saline. Final dosing solution concentrations were 2.5, 5, 10, or 20 mg/mL, in order to provide respective doses of 25, 50, 100 or 200 mg/kg in a dosing volume of 10 mL/kg. Paclitaxel (Natural Pharmaceuticals, Inc.) was prepared fresh on each day of dosing in a vehicle consisting of 5% ethanol and 5% Cremophor EL in 90% D5W (5% EC vehicle).
Group 1 received the formulation vehicle (10% Cremophor EL in saline), and served as the tumor growth control group. Group 2 received the reference drug paclitaxel administered on its optimal schedule in nude mice (30 mg/kg i.v. qod×5). […] All doses were scaled to the weight of the animal (0.2 mL per 20 grams body weight).
Tumors were measured twice each week using calipers. […] Therefore endpoint tumor size of 800 mm^3 was used for analysis of tumor growth delay (TGD).
[formula] where b is the intercept and m is the slope of the line obtained by linear regression of a log-transformed tumor growth data set.

[2] = Pharmacokinetics in cancer patients following multiple doses; conditions: 6 mg
human tumor cell lines = experiment: In vitro cancer screen (SRB; GI50, TGI, LC50); conditions: for CC50: read-out: LC50
[3] = Pharmacokinetics in healthy volunteers following multiple doses; conditions: 20 mg
[4] = Group 3, 50 mg/kg po qd × 14 per the 39th table (25 mg/kg p.o. qd×14), n=9
[5] = Group 4, 25 mg/kg po bid × 14 first day 1 dose per the 39th table (50 mg/kg p.o. qd×14), n=9
[6] = Group 5, 25 mg/kg po qd × 14 per the 39th table (100 mg/kg p.o. qd×14), n=9
[7] = Group 6, 12.5 mg/kg po bid × 14 first day 1 dose per the 39th table (200 mg/kg p.o., discontinued after six days), n=9
[8] = A549/ATCC (Non-Small Cell Lung Cancer)
[9] = EKVX (Non-Small Cell Lung Cancer)
[10] = HOP-62 (Non-Small Cell Lung Cancer)
[11] = HOP-92 (Non-Small Cell Lung Cancer)
[12] = NCI-H23 (Non-Small Cell Lung Cancer)
[13] = NCI-H226 (Non-Small Cell Lung Cancer)
[14] = NCI-H322M (Non-Small Cell Lung Cancer)
[15] = NCI-H460 (Non-Small Cell Lung Cancer)
[16] = NCI-H522 (Non-Small Cell Lung Cancer)

COc1cc(F)c(F)c(Nc2ccc(I)cc2F)c1NS(=O)(=O)C1(C[C@H](O)CO)CC1 [Compound A]
TGD ([1]; 25 mg/kg p.o. qd×14): 3%
TGD ([1]; 50 mg/kg p.o. qd×14): 46%
TGD ([1]; 100 mg/kg p.o. qd×14): maximum TGD possible
relation to the MTD ([1]; 200 mg/kg p.o. once daily): above the MTD
TR deaths ([1]; 200 mg/kg p.o., dosing stopped after Day 6): 3/9
Median TTE ([1]; Group 3, 25 mg/kg p.o. qd×14): 47.9 days
% TGD [1, 4]: 17%
MTV (n) Day 74 [1, 4]: 0 (3)
Median TTE [1, 4]: 47.9 days
No of CR [1, 4]: 0
No of NTR (non-treatment-related deaths) [1, 4]: 2
No of PR [1, 4]: 1
No of TFS [1, 4]: 0
No of TR (treatment-related deaths) [1, 4]: 2
SS (statistical significance, logrank vs Group 1) [1, 4]: ns
T − C [1, 4]: 6.9 days
% TGD [1, 5]: 44%
MTV (n) Day 74 [1, 5]: 195 (1)
Median TTE [1, 5]: 59.1 days
No of CR [1, 5]: 0
No of NTR (non-treatment-related deaths) [1, 5]: 0
No of PR [1, 5]: 4
No of TFS [1, 5]: 0
No of TR (treatment-related deaths) [1, 5]: 0
SS (statistical significance, logrank vs Group 1) [1, 5]: ns
T − C [1, 5]: 18.1 days
Median TTE ([1]; Group 4, 50 mg/kg p.o. qd×14): 59.1 days
% TGD [1, 6]: 80%
MTV (n) Day 74 [1, 6]: 320 (5)
Median TTE [1, 6]: 74.0 days
No of CR [1, 6]: 0
No of NTR (non-treatment-related deaths) [1, 6]: 0
No of PR [1, 6]: 4
No of TFS [1, 6]: 0
No of TR (treatment-related deaths) [1, 6]: 1
SS (statistical significance, logrank vs Group 1) [1, 6]: ns
T − C [1, 6]: 33.0 days
Median TTE ([1]; Group 5, 100 mg/kg p.o. qd×14): 74.0 days
% TGD [1, 7]: 41%
MTV (n) Day 74 [1, 7]: 0 (3)
Median TTE [1, 7]: 57.8 days
No of CR [1, 7]: 3
No of NTR (non-treatment-related deaths) [1, 7]: 2
No of PR [1, 7]: 1
No of TFS [1, 7]: 0
No of TR (treatment-related deaths) [1, 7]: 2
T − C [1, 7]: 16.8 days

COc1cc(F)c(F)c(Nc2ccc(I)cc2F)c1NS(=O)(=O)C1(C[C@H](O)CO)CC1
Rac AUCτ (accumulation index) [2]: 2.07
GI50 (human tumor cell lines; 786-0 (Renal Cancer)): 5.13 µM
TGI (human tumor cell lines; 786-0 (Renal Cancer)): 23.442 µM
GI50 (human tumor cell lines; A498 (Renal Cancer)): 0.191 µM
TGI (human tumor cell lines; A498 (Renal Cancer)): 4.169 µM
GI50 (human tumor cell lines; [8]): 0.589 µM
TGI (human tumor cell lines; [8]): 64.565 µM
GI50 (human tumor cell lines; ACHN (Renal Cancer)): 0.275 µM
TGI (human tumor cell lines; ACHN (Renal Cancer)): 21.878 µM
GI50 (human tumor cell lines; BT-549 (Breast Cancer)): 5.75 µM
TGI (human tumor cell lines; BT-549 (Breast Cancer)): 20.893 µM
GI50 (human tumor cell lines; CAKI-1 (Renal Cancer)): 0.389 µM
TGI (human tumor cell lines; CAKI-1 (Renal Cancer)): 26.915 µM
GI50 (human tumor cell lines; CCRF-CEM (Leukemia)): 17.4 µM
TGI (human tumor cell lines; CCRF-CEM (Leukemia)): 60.256 µM
GI50 (human tumor cell lines; DU-145 (Prostate Cancer)): 2.14 µM
TGI (human tumor cell lines; DU-145 (Prostate Cancer)): 22.387 µM
GI50 (human tumor cell lines; [9]): 0.214 µM
TGI (human tumor cell lines; [9]): 13.804 µM
GI50 (human tumor cell lines; HCC-2998 (Colon Cancer)): 0.01 µM
TGI (human tumor cell lines; HCC-2998 (Colon Cancer)): 0.035 µM
GI50 (human tumor cell lines; HCT-15 (Colon Cancer)): 0.603 µM
TGI (human tumor cell lines; HCT-15 (Colon Cancer)): 16.982 µM
GI50 (human tumor cell lines; HCT-116 (Colon Cancer)): 0.195 µM
TGI (human tumor cell lines; HCT-116 (Colon Cancer)): 12.589 µM
GI50 (human tumor cell lines; HL-60(TB) (Leukemia)): 0.01 µM
TGI (human tumor cell lines; HL-60(TB) (Leukemia)): 100.000 µM
GI50 (human tumor cell lines; [10]): 0.069 µM
TGI (human tumor cell lines; [10]): 12.589 µM
GI50 (human tumor cell lines; [11]): 0.047 µM
TGI (human tumor cell lines; [11]): 0.324 µM
GI50 (human tumor cell lines; HS 578T (Breast Cancer)): 0.617 µM
TGI (human tumor cell lines; HS 578T (Breast Cancer)): 13.490 µM
GI50 (human tumor cell lines; HT29 (Colon Cancer)): 0.026 µM
TGI (human tumor cell lines; HT29 (Colon Cancer)): 3.090 µM
GI50 (human tumor cell lines; IGROV1 (Ovarian Cancer)): 0.018 µM
TGI (human tumor cell lines; IGROV1 (Ovarian Cancer)): 0.295 µM
GI50 (human tumor cell lines; K-562 (Leukemia)): 6.61 µM
TGI (human tumor cell lines; K-562 (Leukemia)): 100.000 µM
GI50 (human tumor cell lines; KM12 (Colon Cancer)): 0.229 µM
TGI (human tumor cell lines; KM12 (Colon Cancer)): 13.490 µM
GI50 (human tumor cell lines; LOX IMVI (Melanoma)): 0.195 µM
TGI (human tumor cell lines; LOX IMVI (Melanoma)): 10.715 µM
GI50 (human tumor cell lines; M14 (Melanoma)): 0.015 µM
TGI (human tumor cell lines; M14 (Melanoma)): 0.166 µM
GI50 (human tumor cell lines; MALME-3M (Melanoma)): 0.01 µM
TGI (human tumor cell lines; MALME-3M (Melanoma)): 0.014 µM
GI50 (human tumor cell lines; MCF7 (Breast Cancer)): 11 µM
TGI (human tumor cell lines; MCF7 (Breast Cancer)): 30.903 µM
GI50 (human tumor cell lines; MDA-MB-231 (Breast Cancer)): 0.069 µM
TGI (human tumor cell lines; MDA-MB-231 (Breast Cancer)): 10.471 µM
GI50 (human tumor cell lines; MDA-MB-435 (Breast Cancer)): 0.035 µM
TGI (human tumor cell lines; MDA-MB-435 (Breast Cancer)): 12.303 µM
GI50 (human tumor cell lines; MDA-MB-468 (Breast Cancer)): 0.019 µM
TGI (human tumor cell lines; MDA-MB-468 (Breast Cancer)): 10.233 µM
GI50 (human tumor cell lines; MOLT-4 (Leukemia)): 11 µM
TGI (human tumor cell lines; MOLT-4 (Leukemia)): 69.183 µM
GI50 (human tumor cell lines; [12]): 0.056 µM
TGI (human tumor cell lines; [12]): 2.884 µM
GI50 (human tumor cell lines; [13]): 3.31 µM
TGI (human tumor cell lines; [13]): 24.547 µM
GI50 (human tumor cell lines; [14]): 0.162 µM
TGI (human tumor cell lines; [14]): 15.488 µM
GI50 (human tumor cell lines; [15]): 3.63 µM
TGI (human tumor cell lines; [15]): 19.498 µM
GI50 (human tumor cell lines; [16]): 5.25 µM
TGI (human tumor cell lines; [16]): 29.512 µM
GI50 (human tumor cell lines; NCI/ADR-RES (Breast Cancer)): 3.47 µM
TGI (human tumor cell lines; NCI/ADR-RES (Breast Cancer)): 25.704 µM
GI50 (human tumor cell lines; OVCAR-3 (Ovarian Cancer)): 2.51 µM
TGI (human tumor cell lines; OVCAR-3 (Ovarian Cancer)): 17.783 µM
GI50 (human tumor cell lines; OVCAR-4 (Ovarian Cancer)): 0.562 µM
TGI (human tumor cell lines; OVCAR-4 (Ovarian Cancer)): 16.218 µM
GI50 (human tumor cell lines; OVCAR-5 (Ovarian Cancer)): 0.017 µM
TGI (human tumor cell lines; OVCAR-5 (Ovarian Cancer)): 12.023 µM
GI50 (human tumor cell lines; PC-3 (Prostate Cancer)): 8.13 µM
TGI (human tumor cell lines; PC-3 (Prostate Cancer)): 37.154 µM
GI50 (human tumor cell lines; RPMI-8226 (Leukemia)): 26.9 µM
TGI (human tumor cell lines; RPMI-8226 (Leukemia)): 100.000 µM
GI50 (human tumor cell lines; SF-268 (CNS Cancer)): 2.57 µM
TGI (human tumor cell lines; SF-268 (CNS Cancer)): 25.704 µM
GI50 (human tumor cell lines; SF-295 (CNS Cancer)): 9.33 µM
TGI (human tumor cell lines; SF-295 (CNS Cancer)): 23.442 µM
GI50 (human tumor cell lines; SF-539 (CNS Cancer)): 1.51 µM
TGI (human tumor cell lines; SF-539 (CNS Cancer)): 20.417 µM
GI50 (human tumor cell lines; SK-MEL-5 (Melanoma)): 0.062 µM
TGI (human tumor cell lines; SK-MEL-5 (Melanoma)): 13.804 µM
GI50 (human tumor cell lines; SK-MEL-28 (Melanoma)): 0.028 µM
TGI (human tumor cell lines; SK-MEL-28 (Melanoma)): 0.214 µM
GI50 (human tumor cell lines; SK-OV-3 (Ovarian Cancer)): 12.9 µM
TGI (human tumor cell lines; SK-OV-3 (Ovarian Cancer)): 41.687 µM
GI50 (human tumor cell lines; SN12C (Renal Cancer)): 0.851 µM
TGI (human tumor cell lines; SN12C (Renal Cancer)): 18.621 µM
GI50 (human tumor cell lines; SNB-19 (CNS Cancer)): 0.251 µM
TGI (human tumor cell lines; SNB-19 (CNS Cancer)): 24.547 µM
GI50 (human tumor cell lines; SNB-75 (CNS Cancer)): 0.302 µM
TGI (human tumor cell lines; SNB-75 (CNS Cancer)): 4.467 µM
GI50 (human tumor cell lines; SR (Leukemia)): 38 µM
TGI (human tumor cell lines; SR (Leukemia)): 100.000 µM
GI50 (human tumor cell lines; SW-620 (Colon Cancer)): 0.039 µM
TGI (human tumor cell lines; SW-620 (Colon Cancer)): 12.589 µM
GI50 (human tumor cell lines; T-47D (Breast Cancer)): 4.9 µM
TGI (human tumor cell lines; T-47D (Breast Cancer)): 38.019 µM
GI50 (human tumor cell lines; TK-10 (Renal Cancer)): 0.224 µM
TGI (human tumor cell lines; TK-10 (Renal Cancer)): 23.442 µM
GI50 (human tumor cell lines; U251 (CNS Cancer)): 0.891 µM
TGI (human tumor cell lines; U251 (CNS Cancer)): 17.378 µM
GI50 (human tumor cell lines; UACC-62 (Melanoma)): 0.014 µM
TGI (human tumor cell lines; UACC-62 (Melanoma)): 0.170 µM
GI50 (human tumor cell lines; UACC-257 (Melanoma)): 0.02 µM
TGI (human tumor cell lines; UACC-257 (Melanoma)): 10.233 µM
GI50 (human tumor cell lines; UO-31 (Renal Cancer)): 0.158 µM
TGI (human tumor cell lines; UO-31 (Renal Cancer)): 11.482 µM
CC50 (human tumor cell lines; HCT-15 (Colon Cancer)): 60.3 µM
CC50 (human tumor cell lines; HT29 (Colon Cancer)): 29.5 µM
CC50 (human tumor cell lines; M14 (Melanoma)): 29.5 µM
CC50 (human tumor cell lines; MDA-MB-435 (Breast Cancer)): 41.7 µM
CC50 (human tumor cell lines; SF-539 (CNS Cancer)): 60.3 µM
CC50 (human tumor cell lines; SK-MEL-28 (Melanoma)): 22.4 µM
CC50 (human tumor cell lines; UACC-62 (Melanoma)): 20.9 µM
Rac AUCτ (accumulation index) [3]: 1.24
